# Test results: patent publication US20210154210A1, “Ophthalmic Formulations and Uses Thereof” (priority 2018, published 2021)
# System: corneal endothelial cells
# Experiment: Corneal endothelial cell counting by specular microscopy
# Assay type: in vivo, rabbits
# Details: for higher cell density compared to negative control group / higher cell density compared to placebo group: 25 ng/mL (group B); for degeneration rate / effect on slowing down and stopping apoptosis and/or autophagy: 25 ng/mL
# From the text: All experiments were designed and carried out in a randomized, double blind manner using placebos. Rabbits were housed for one week prior to the study, fed on standard laboratory food and allowed free access to water in a room at standard temperature and humidity conditions in a 12-h light/12-h dark cycle.
# Counting Corneal Cell number:
# Any excess was discarded, and a fresh batch prepared for the next 15-days. Effects of the eye drop on corneal endothelium as well as cell numbers and shapes were observed by means of specular microscopy (NIDEK-CEM 530, Japan) at the end of months 0, 1, 3 and 6. Rabbits were euthanatized by an intravenous injection of Tanax (0.3 mL/kg). Vitreous (0.2 mL) was aspirated with a 25-gauge needle attached to a 5-mL disposable syringe, driven at 3.0 mm from the limbus, and guided toward the center of the eyeball, taking care to avoid bleeding when the needle was introduced (vitreous samples were stored at −80° C. until the analysis). Eye tissue was fixed with 4% formaldehyde and embedded in paraffin for histopathological assessment. The individual values for three replicates were determined and the mean values were reported.
# All analyses were carried out using GraphPad Prism 5.0 (GraphPad Software, San Diego, Calif., USA). Differences were considered to be significant at a level of P 0.001.
# [1] = compared to the negative control group
structure (smiles),measurement,setting,value
"CC(C)(O)[C@@H]1CC[C@](C)([C@H]2[C@@H](O)C[C@@]3(C)[C@@H]4C[C@H](O)[C@H]5C(C)(C)[C@@H](O)CC[C@@]56C[C@@]46CC[C@]23C)O1 [cycloastragenol, Cycloastragenol]",higher cell density compared to negative control group,month 1,about 4%
same,higher cell density compared to placebo group,month 1,about 4%
same,higher cell density compared to negative control group,month 3,~18%
same,higher cell density compared to placebo group,month 3,~18%
same,higher cell density compared to negative control group,month 6,~19%
same,higher cell density compared to placebo group,month 6,~20%
same,degeneration rate,[1],0%
same,effect on slowing down and stopping apoptosis and/or autophagy,[1],100%
same,degeneration rate,compared to the placebo group,0%
same,effect on slowing down and stopping apoptosis and/or autophagy,compared to the placebo group,100%
